Consider one compound from PMC6836034, “The Effect of Silymarin Flavonolignans and Their Sulfated Conjugates on Platelet Aggregation and Blood Vessels Ex Vivo” (Nutrients, 2019).

One may read the IC50 as the point on the concentration scale where inhibition reaches its midpoint. Low readings indicate greater potency, high ones weaker potency.

The target of this assay is T1, COX-1 (cyclooxygenase-1) (Ovis aries, UniProt P05979).
T1 construct: gene PTGS1
T1 sequence (P05979 25-600): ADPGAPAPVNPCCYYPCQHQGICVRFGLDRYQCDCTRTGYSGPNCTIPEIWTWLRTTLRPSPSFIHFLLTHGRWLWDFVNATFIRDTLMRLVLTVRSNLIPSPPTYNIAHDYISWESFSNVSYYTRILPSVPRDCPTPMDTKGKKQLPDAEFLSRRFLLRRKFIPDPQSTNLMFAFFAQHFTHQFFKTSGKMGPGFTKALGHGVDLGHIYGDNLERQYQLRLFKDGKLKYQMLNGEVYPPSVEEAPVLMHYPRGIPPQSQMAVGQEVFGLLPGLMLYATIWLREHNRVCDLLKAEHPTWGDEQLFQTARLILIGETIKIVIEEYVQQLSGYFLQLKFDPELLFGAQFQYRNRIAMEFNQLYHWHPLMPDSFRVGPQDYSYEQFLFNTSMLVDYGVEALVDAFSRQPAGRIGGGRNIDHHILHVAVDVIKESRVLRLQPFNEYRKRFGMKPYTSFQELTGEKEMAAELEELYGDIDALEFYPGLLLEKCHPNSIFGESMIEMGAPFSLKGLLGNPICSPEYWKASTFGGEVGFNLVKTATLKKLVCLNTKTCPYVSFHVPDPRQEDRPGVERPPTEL
Description: biochemical.

Regarding `COc1cc(C2Oc3cc(-c4oc5cc(O)cc(O)c5c(=O)c4O)ccc3OC2CO)ccc1O` (racemic) [2,3-dehydrosilybin], the 50% inhibitory concentration (IC50) was determined as 25.2 ± 10.4 µM.
